The results in this text go back to article PMC11784013, “Potassium molybdate blocks APN-dependent coronavirus entry by degrading receptor via PIK3C3-mediated autophagy” (Journal of Virology, 2024).

In data set [1] the test system is TGEV Miller. Kind of data set: TGEV infection of ST cells (RT-qPCR, TCID50, western blot, IFA). The settings on record: TGEV Miller 0.1 MOI, PM 1 h pretreatment and 17 h after infection, TCID50, western blot, IFA. Format: cell-based, transmissible gastroenteritis virus. The method, then: Fig 1 PM inhibits TGEV and PRCV infection in ST cells. (A) A cytotoxicity assay of PM in ST cells. ST cells cultured in a 96-well plate were incubated with different concentrations of PM for 24 h, which was tested by Cell Counting Kit 8. (B) Time course for PM inhibiting TGEV or PRCV or PEDV infection assay. (C–F) The ST cells, pretreated with PM at the indicated concentrations for 1 h were infected with TGEV Miller (0.1 MOI) or PRCV (0.1 MOI) for 1 h and were again treated with PM at 37°C for 17 h. The cell samples were collected and examined by real-time quantitative PCR (RT-qPCR), TCID50, western blot (C and D), and immunofluorescence assay (IFA) (E and F), scale bar: 50 µm. (G) Vero-E6 cells were treated with indicated PM and infected with PEDV LJX 01/2014 according to the time course of Fig. 1B, which was detected by TCID50 and western blot. Results are presented as mean ± SD of data from three independent experiments. ns, no significant; **, P ≤ 0.01; ***, P ≤ 0.001.
Fig 3 PM inhibits TGEV and PRCV infection by potassium ion and molybdate synergy. […] The cell samples were measured by RT-qPCR. (C and D) ST cells were treated with PM (K2MoO4, 10 mM), KCl (20 mM), Na2MoO4 (10 mM), sodium chloride (NaCl, 10 mM), K2MoO4 (10 mM), and NaCl (20 mM) as well as Na2MoO4 (10 mM) and KCl (20 mM) for 1 h and then infected with TGEV Miller (0.1 MOI) or PRCV (0.1 MOI) for 17 h, which was determined by RT-qPCR and TCID50. […]
Total RNA was extracted using RNAiso reagent (TaKaRa, Japan, 9109) and reverse transcribed into cDNA using HiScript Q RT SuperMix for qPCR (Vazyme, China, R223-01), both of which followed the manufacturer’s recommendations. The TGEV and PRCV virus copy numbers were detected by the TaqMan probe-based RT-qPCR method developed previously in our laboratory ([59]). Relative qPCR was also performed using ChamQ SYBR qPCR master mix (Vazyme, China, Q311-02), and the results were calculated via the 2^-ΔΔCT method.
Background: Real-time PCR tracks product formation cycle by cycle.

The format of data set [2] is in vivo. The settings on record: piglets, oral PM 100 mg/kg. The method, then:
Neonatal pigs spontaneously delivered from sows were confirmed to be negative for TGEV by RT-qPCR and enzyme-linked immunosorbent assay. For the cytotoxicity and pharmacokinetic parameters of the PM, three piglets were orally administered PM (100 mg/kg), and the serum was collected by venipuncture at 0, 1, 2, 4, 6, 8, 10, 12, 16, and 24 h after oral administration of PM for cytotoxicity assays and pharmacokinetic parameter determination. For antiviral animal experiments, piglets were randomly separated into four groups: the mock group ([3]), TGEV group ([3]), TGEV-PM-therapy group ([3]), and TGEV-PM-prevention group ([3]). For the TGEV group, neonatal pigs were orally administered 1.245 × 10^8 PFU TGEV Miller for 24 h. In addition, piglets in the TGEV-PM therapy group were orally infected with 1.245 × 10^8 PFU TGEV Miller and then treated with PM (100 mg/kg). […] The body weights of all piglets were recorded, and anal swabs were collected every 12 h. […]
Fig. S9. […] (A) The serum of piglets orally administered PM were collected at 1, 2, 4, 6, 8, 10, 12, 16 and 24 hours respectively and AST, CK and CREA level in those sera were measured by biochemical parameters. (B) PM concentrations at indicated times in piglets were determined by ICP-MS. […]

Data set [3] relates to TGEV Miller. Briefly: TGEV challenge of neonatal piglets, PM therapy and prevention. The data set is classed as in vivo. How it is done: Fig 10 Oral administration of PM reduces TGEV pathogenicity by autophagic degradation of APN in piglets. (A) Experimental schemes for testing therapeutic and prophylactic efficacy of PM treatment against TGEV challenge in four groups of piglets. (B) Viral shedding was measured by RT-qPCR every 12 h postinfection. (C) TGEV genome copy numbers of duodenum, jejunum, and ileum were detected by RT-qPCR, and APN, PIK3C3, P62, and TGEV N in the small intestine were determined by western blot from piglets sacrificed at 24 hpi. (D) IFA of TGEV N and APN in different segments of the small intestine from piglets sacrificed at 24 hpi. Scale bar: 50 µm. Results are presented as mean ± SD of data from three independent experiments. **, P ≤ 0.01; ***, P ≤ 0.001.
Small intestinal tissues were collected, fixed for 24 h in 10% formalin, dehydrated according to the standard protocol, embedded in paraffin, and subjected to hematoxylin and eosin staining by standard procedures. For immunofluorescence analysis, Organoid monolayers or ST cells were fixed with 4% paraformaldehyde for 20 min and then permeabilized with 0.1% Triton X-100 (Beyotime, China, ST797) for 20 min at 37°C. Organoid monolayers or ST cells were blocked with 5% BSA (Biofroxx, Germany, 4240GR100) for 1 h and then labeled with primary antibodies overnight at 4°C. After rinsing, the sections were incubated with secondary antibodies for 1 h at room temperature. Next, 4’,6-diamidino-2-phenylindole (DAPI; Beyotime, China, C1006) was used to stain the nuclei. After washing, the organoid monolayers or ST cells were visualized using confocal laser-scanning microscopy (Zeiss LSM 900, Germany). Apical-out porcine intestinal organoids or small intestinal tissues were stained with primary and secondary antibodies and visualized using confocal laser-scanning microscopy (Zeiss LSM 900, Germany) according to the manufacturer’s protocol ([28]).
Neonatal pigs spontaneously delivered from sows were confirmed to be negative for TGEV by RT-qPCR and enzyme-linked immunosorbent assay. For the cytotoxicity and pharmacokinetic parameters of the PM, three piglets were orally administered PM (100 mg/kg), and the serum was collected by venipuncture at 0, 1, 2, 4, 6, 8, 10, 12, 16, and 24 h after oral administration of PM for cytotoxicity assays and pharmacokinetic parameter determination. For antiviral animal experiments, piglets were randomly separated into four groups: the mock group ([3]), TGEV group ([3]), TGEV-PM-therapy group ([3]), and TGEV-PM-prevention group ([3]). For the TGEV group, neonatal pigs were orally administered 1.245 × 10^8 PFU TGEV Miller for 24 h. In addition, piglets in the TGEV-PM therapy group were orally infected with 1.245 × 10^8 PFU TGEV Miller and then treated with PM (100 mg/kg). For the TGEV-PM-prevention group, three neonatal pigs were orally pretreated with PM (100 mg/kg) for 24 h and subsequently inoculated with 1.245 × 10^8 PFU TGEV Miller for 24 h. The body weights of all piglets were recorded, and anal swabs were collected every 12 h. At 24 hpi, all pigs were euthanized, and intestinal tissues were collected for RT-qPCR, western blot, IFA, and pathological examination. All animals were handled in strict accordance with good animal practice according to the Animal Ethics Procedures and Guidelines of the People’s Republic of China, and the study was approved by The Animal Administration and Ethics Committee of Lanzhou Veterinary Research Institute, Chinese Academy of Agricultural Sciences (Permit No. LVRIAEC-2020-030).

The mark [4] stands for this setting: PM-therapy and PM-prevention groups vs control, 24 hpi, western blot.
[5] abbreviates: oral PM 100 mg/kg every 12 h, TGEV Miller 1.245 × 10^8 PFU oral.

Turning to `[K+].[K+].[O]=[Mo](=[O])([O-])[O-]` [PM, potassium molybdate], the TGEV infection entry in the data set with TGEV Miller [1] was “effectively restricted”. The “safety of the dose” value in data set [2] is on record as “safe concentration”. Moreover, the “aminotransferase (AST), creatine kinase (CK) and creatinine (CERA) levels” value in data set [2] (serum at 0-24 h) is recorded as “did not affect”. The “APN expression and TGEV N protein expression in small intestine (IFA)” value in the data set on TGEV Miller [3] (24 hpi) is given as “almost entirely inhibited”. Besides, in the data set on TGEV Miller [3] (PM 100 mg/kg, preventive or therapeutic treatment, 24 hpi), the “TGEV-induced villous atrophy of small intestinal segments (H&E)” value was “almost completely reversed TGEV-induced villous atrophy”. The “effect of PM alone on the small intestine (H&E)” value with TGEV Miller [3] (PM treatment alone) is recorded as “did not have any impact on the small intestine”. Moreover, the “TGEV burden throughout the small intestine” value with TGEV Miller [3] (PM-therapy and PM-prevention groups vs control, 24 hpi, RT-qPCR and western blot) is on record as “substantially lower”. Besides, in the data set with TGEV Miller [3] (setting [4]), the “APN and P62 expression throughout the small intestine” value is given as “substantially lower”; the “PIK3C3 expression in the small intestine” value is recorded as “significantly higher”. In addition, in the data set on TGEV Miller [3] (setting [5]), the body weight loss entry is “TGEV group lost more weight and had higher viral shedding than those receiving PM”; the “viral shedding (anal swabs, RT-qPCR)” value was “TGEV group lost more weight and had higher viral shedding than those receiving PM”.
